Reference: patent US20030158118A1, “Combination of cimetidine and cysteine derivatives for treating cancer” (priority 2001, published 2003)

Tested on: CT26 colorectal cancer cells
Test: Tumor growth in BALB/c mice grafted with syngenic CT26 colorectal cancer cells
Type: in vivo
Conditions: day 33; drinking water: compound 20 1.5 mg/ml (150 mg/kg daily), cimetidine or N-acetyl cysteine 0.75 mg/ml (75 mg/kg daily); vs vehicle
Description: The effect of a complex of the invention and the effect of the components of the complex is tested on tumor growth in BALB/c mice grafted with syngenic CT26 colorectal cancer cells. The aim of the study is to compare the effect on tumor growth of the complex of the invention versus the effect of the two components of the complex individually. […] Compound 20, cimetidine and […] dissolved in drinking water. […] The solutions are available ad libitum in the entire study period. […] The doses of cimetidine and N-acetylcysteine are selected to correspond to the doses of each individual compound obtained by administration of […] of compound 20. In these studies, female BALB/c mice with an age of 6 weeks are used. Ten mice are included per group. The mice are caged in standard cages at a temperature of 21° C.-23° C. controlled via the ambient ventilation system in the laboratory. Light cycle is 12-hour dark and 12-hour light (lights on 06.00). Diet is Altromin 1314 special formulation, Produced by Altromin Denmark, Chr. Pedersen A/S, 4100 Ringsted, Denmark. Water is acidified with citric acid. Diet and water is administered ad libitum. The mice are randomised to test groups of ten mice. After one week of acclimatisation each mouse is injected subcutaneously with appr. […] Tumor diameters are measured in two dimensions using a digital slide gauge.

Row | Compound | tumor growth inhibited [%]
1 | CC(=O)N[C@@H](CS)C(=O)O [N-acetyl cysteine] | 19
2 | CN/C(=N/CCSCc1nc[nH]c1C)NC#N [cimetidine] | 8
